Experimental data published in patent publication US20240189263A1, “DERIVATIZED C60 MOLECULES AND METHODS AND MATERIALS FOR USING DERIVATIZED C60 MOLECULES TO REDUCE RADIATION INJURY” (Mayo Foundation for Medical Education and Research, priority 2021, published 2024).

What was measured:
N2A cells = assay: Classic clonogenics survival assay of irradiated cells, N2A; assay type: cell-based
Description: (§1) A classic clonogenics assay was performed to further test the ability of C60-ser to protect against radiation damage. After irradiation, a fraction of the cells will undergo radiation-induced death, whereas other cells remain metabolically active and are able to undergo a few cycles of mitosis before meeting their endpoint. Since many cells remain metabolically activity, classic toxicity measurements such as an MTT measurement are not able to catch the full effects of radiation damage. In contrast, a classic clonogenics assay, which plates a known number of cells and tracks development of colonies, is able to track the number of cells that maintain their clonogenicity. With increasing radiation doses, the fraction of cells that maintain clonogenicity decrease. Therefore, a successful radioprotectant is able to increase the number of surviving colonies compared to the control at the same radiation doses.
(§2) N2A, NIH3T3, and HepG2 cells were plated in 35 mm dishes and treated with 100 μM C60-ser for 2 hours prior to washing with PBS and irradiation at 0, 2, 4, and 6 Gy with a 230 MeV proton beam. Following radiation, a known number of cells were re-plated in six well plates and allowed to grow in culture for 8-14 days to allow for colony formation. To account for cell death with higher radiation doses, a larger number of cells were plated with increasing doses received. […]

C57B16 mice = assay: Whole body radiation protection, survival; assay type: in vivo
HepG2 cells = assay: Seahorse mitochondrial respiration (oxygen consumption rate), HepG2; assay type: cell-based; details: HepG2, pretreated 2 hours before 1 Gy 230 MeV proton
Description: The oxygen consumption rates were assessed in N2A, HUVEC, NIH3T3, and HepG2 cell lines with a Seahorse XFe96 (Agilent Technologies, Santa Clara, CA, USA). Cells were treated with 0 and 1 Gy of 230 MeV proton irradiation. The control plates were run at about the same time post plating. Each cell line was optimized prior to these experiments, and data was presented normalized to cell number plated. The standard mitochondrial stress test was performed using serial injections of oligomycin (1.5 μM), carbonyl cyanide p-(trifluoromethoxy)phenylhydrazone (FCCP, 1 μM), and rotenone/antimycin A mixture (0.5 μM). After injection of oligomycin, which inhibits ATP synthase (complex V), there was a drop in electron flow through the electron transport chain (ETC) and a resultant drop in oxygen consumption rate (OCR) of the cells. Injection of FCCP collapsed the proton gradient and allowed for uninhibited electron flow through the ETC supercomplexes. […] The reserve respiratory capacity was calculated by subtracting the basal respiratory capacity from the maximal respiratory capacity.

[1] = Dynamic light scattering analysis of C60-ser aggregates; assay type: physicochemical; details: for Predominant aggregate sizes: in PBS
Description: Dynamic light scattering (DLS) was used to observe the aggregation process of C60-ser. Dynamic light scattering heatmaps were created by combining multiple normalized particle number weighted distribution (PNWD) plots. The PNWD plots compared the log of the relative scattering intensity versus particle size, at angles of 173°. The refractive index was assumed to be n=1.34, the absorption constant to be k=0.001, and the solution viscosity to be that of water, corrected for temperature (η=0.888 mPa s). Plots were collected with a 0.2° C. interval. Each temperature interval was held constant for more than 45 minutes before performing the next measurement, to ensure the presence of an aggregation equilibrium.

NIH3T3 cells [2] = assay: MTS cytotoxicity assay, NIH3T3; assay type: cell-based
Description: Cytotoxicity of C60-ser was determined by an MTS (3-(4,5-dimethylthiazol-2-yl)-5-(3-carboxymethoxyphenyl)-2-(4-sulfophenyl)-2H-tetrazolim) colorimetric assay on four different cell lines, each representing a different cell type. Specifically, HepG2 (liver epithelium), HUVEC (endothelial cells), N2A (neuroblastoma cells representative of normal neurons), and NIH3T3 (fibroblasts) were analyzed. The cells were seed in a 96-well tissue culture polystyrene plate at different seeding concentrations based on the cell's doubling time. HUVEC cells were seeded at 10,000 cells/well (24 hour experiments), 8,000 cells/well (48 hour experiments), and 5,000 cells/well (72 hour experiments), and incubated for 24 hours in a humidified atmosphere with 5% C02 at 37° C. […] After incubation with MTS, the optical density (OD) of the resulting formazan solution was read at 490 nm using a microplate reader (Biotek Cytation 5 cell Imaging Multi-Mode reader, Winooski, VT). The cell viability was obtained by normalizing the absorbance of the sample with that of the control wells containing untreated cells. The cell viability was expressed as a percentage, assigning the viability of non-treated cells as 100%. […]

NIH3T3 cells [3] = assay: Classic clonogenics survival assay of irradiated cells, NIH3T3; assay type: cell-based
Description: as §1, §2

O=C(NC(CO)CO)C1(C(=O)NC(CO)CO)C23c4c5c6c7c8c4-c4c2c2c9c%10c4C4%11c%12c-%10c%10c%13c%14c%12-c%12c(c-7c7c%15c%12C%14%12C(C(=O)NC(CO)CO)(C(=O)NC(CO)CO)C%12%14c%12c%16c%17c%18c(c%12-%15)C7%12C(C(=O)NC(CO)CO)(C(=O)NC(CO)CO)C6%12c6c-5c5c7c(c6-%18)C%176C(C(=O)NC(CO)CO)(C(=O)NC(CO)CO)C6%12c6c-7c(c-2c2c6-c6c%12c-%16c%14c-%13c6C%106C(C(=O)NC(CO)CO)(C(=O)NC(CO)CO)C926)C513)C84C%11(C(=O)NC(CO)CO)C(=O)NC(CO)CO (stereo not shown) [C60-ser, C60-serinol]
fraction of surviving cells (N2A cells; 100 μM 2 hours before irradiation): increased the fraction of surviving cells | dose enhancement factor (DEF) at 20% surviving fraction (N2A cells; 100 μM 2 hours, 0-6 Gy 230 MeV proton, one set of clonogenics): 0.91 | protection from whole body x-ray radiation-induced death (C57B16 mice; given systemically 12 hours after radiation): protected mice from whole body x-ray radiation-induced death | survival over 45 day study (C57B16 mice; per os 700 mg/kg 12 hours before 9.5 Gy whole-body x-ray, then 70 mg/kg daily for eight days): 100% | survival over 45 day study (C57B16 mice; per os 700 mg/kg once 12 hours before 9.5 Gy whole-body x-ray): 100% | radiation-induced increase in respiratory capacity (HepG2 cells): dampened and, in some cases, reduced to normal or slightly below normal levels | Predominant aggregate sizes ([1]; 0.1 mg/mL, 37 ° C.): 260 ± 38 nm | Predominant aggregate sizes ([1]; 10 mg/mL, 4 ° C.): 290 ± 73 nm | Predominant aggregate sizes ([1]; 10 mg/mL, 37 ° C.): 233 ± 56 nm | size of aggregates ([1]; dynamic equilibrium in water): 100-2000 nm | size of conjugate monomers ([1]; dynamic equilibrium in water): ~3 nm | diameters of individual molecules ([1]; initially, when dissolved in water): 3-4 nm | percent viability at the highest dose (NIH3T3 cells [2]; NIH3T3, 1000 μM): downward trend | percent viability (NIH3T3 cells [2]; NIH3T3, 1-1000 μM, 24, 48 or 72 hours): did not result in a significant decrease in viability | fraction of surviving cells (NIH3T3 cells [3]; NIH3T3, 100 μM 2 hours before irradiation): increased the fraction of surviving cells | dose enhancement factor (DEF) at 20% surviving fraction (NIH3T3 cells [3]; NIH3T3, 100 μM 2 hours, 0-6 Gy 230 MeV proton): 0.85±0.03
